{"source": "the NIST ThermoML archive (doi:10.1021/je034227w)", "conditions": "Liquid; for mass density: 298.15 K, 101.33 kPa", "note": "Numbers after ± are expanded uncertainties.", "data": [{"smiles": "CO", "note": "[methanol]", "values": [{"measurement": "mass density", "result": "786.5 ± 5", "unit": "kg/m3"}, {"measurement": "Normal boiling temperature", "result": "64.52 ± 0.03", "unit": "°C"}]}, {"smiles": "CCO", "note": "[ethanol]", "values": [{"measurement": "mass density", "result": "785.1 ± 5", "unit": "kg/m3"}, {"measurement": "Normal boiling temperature", "result": "78.31 ± 0.03", "unit": "°C"}]}]}
